Reference: patent publication US8697736B2, “1H-benzimidazole-4-carboxamides substituted with phenyl at the 2-position are potent PARP inhibitors” (AbbVie Inc., priority 2005, dated 2014)

System: MX-1 Breast Carcinoma Xenograft
Experiment: PARP inhibitors in combination with cisplatin in an early staged MX-1 breast carcinoma xenograft model
Assay type: in vivo, female SCID mice
Conditions: average tumor volume at Day 48; PARPi 25 or 0 mg/kg/day s.c. OMP x7 from day 16 + cisplatin 6 mg/kg/day i.p. qd x1 on day 18; footnote a not given; in mm³ (unit assumed)
Description: PARP Inhibitors in Combination with Cisplatin in an Early Staged MX-1 Breast Carcinoma Xenograft Model
0.2 cc of 1:10 MX-1 tumor brei, was injected subcutaneously into the flank of female SCID mice (Charles River Labs) on study day 0. On day 15, tumors were size matched (188±25 mm^3) and the animals were placed into one of two therapy groups:
Group 1 vehicle (s.c. OMP×7)+Cisplatin 6 mg/kg/day (i.p., qd×1)
Group 2 PARPi 25 mg/kg/day (s.c. OMP×7)+Cisplatin 6 mg/kg/day (i.p., qd×1) The vehicle for both the PARP inhibitor and cisplatin was 0.9% NaCl. There were 8-10 […] in each group. Treatment with the PARPi began on day 16 while cisplatin treatment was started on day 18. At various intervals following tumor cell inoculation, the individual tumor dimensions were serially measured using calibrated microcalipers and the tumor volumes calculated according to the formula V=L×W^2/2 (V:volume, L:length, W:width). Mice were humanely euthanized when the tumor volumes reached a predetermined size.

## N.N.[Cl][Pt][Cl] [Vhl (PARPi)/Cis, Cisplatin]
  Tumor Volume (Day 48): 1389 ± 300
